Columns and labels:
Assay in all cases: Kinase panel (Dundee profiling)
Format in all cases: biochemical
LKB1 = LKB1 (Homo sapiens, UniProt Q15831); conditions: read-out: % residual kinase activity
Procedure, shortened: (§1)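 Radioisotopic enzymatic activity assay across a panel of 140 recombinant kinases, with test compound at 10 and 1 μM. Values are % residual kinase activity relative to DMSO control, mean±SEM, n=3.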

TAK1 = TAK1 (Homo sapiens, UniProt O43318); conditions: read-out: % residual kinase activity
Procedure, shortened: as §1

MNK2 = MNK2 (Homo sapiens, UniProt Q9HBH9); conditions: read-out: % residual kinase activity
Procedure, shortened: as §1

EPH-A4 = EPH-A4 (Homo sapiens, UniProt P54764); conditions: read-out: % residual kinase activity
Procedure, shortened: as §1

MEKK1 = MEKK1 (Homo sapiens, UniProt Q13233); conditions: read-out: % residual kinase activity
Procedure, shortened: as §1

PAK5 = PAK5 (Homo sapiens, UniProt Q9P286); conditions: read-out: % residual kinase activity
Procedure, shortened: as §1

PKCa = PKCa (Homo sapiens, UniProt P17252); conditions: read-out: % residual kinase activity
Procedure, shortened: as §1

ERK1 = ERK1 (Homo sapiens, UniProt P27361); conditions: read-out: % residual kinase activity
Procedure, shortened: as §1

VEG-FR = VEG-FR (Homo sapiens, UniProt P17948); conditions: read-out: % residual kinase activity
Procedure, shortened: as §1

HER4 = HER4 (Homo sapiens, UniProt Q15303); conditions: read-out: % residual kinase activity
Procedure, shortened: as §1

PIM3 = PIM3 (Homo sapiens, UniProt Q86V86); conditions: read-out: % residual kinase activity
Procedure, shortened: as §1

ZAP70 = ZAP70 (Homo sapiens, UniProt P43403); conditions: read-out: % residual kinase activity
Procedure, shortened: as §1

MKK6 = MKK6 (Homo sapiens, UniProt P52564); conditions: read-out: % residual kinase activity
Procedure, shortened: as §1

TAO1 = TAO1 (Homo sapiens, UniProt Q7L7X3); conditions: read-out: % residual kinase activity
Procedure, shortened: as §1

FGF-R1 = FGF-R1 (Homo sapiens, UniProt P11362); conditions: read-out: % residual kinase activity
Procedure, shortened: as §1

MAPKAP-K2 = MAPKAP-K2 (Homo sapiens, UniProt P49137)
Procedure, shortened: as §1

PDGFRA = PDGFRA (Homo sapiens, UniProt P16234); conditions: read-out: % residual kinase activity
Procedure, shortened: as §1

ERK2 = ERK2 (Homo sapiens, UniProt P28482); conditions: read-out: % residual kinase activity
Procedure, shortened: as §1

PKCγ = PKCγ (Homo sapiens, UniProt P05129); conditions: read-out: % residual kinase activity
Procedure, shortened: as §1

S6K1 = S6K1 (Homo sapiens, UniProt P23443); conditions: read-out: % residual kinase activity
Procedure, shortened: as §1

OSR1 = OSR1 (Homo sapiens, UniProt O95747); conditions: read-out: % residual kinase activity
Procedure, shortened: as §1

MAPKAP-K3 = MAPKAP-K3 (Homo sapiens, UniProt Q16644); conditions: read-out: % residual kinase activity
Procedure, shortened: as §1

ULK2 = ULK2 (Homo sapiens, UniProt Q8IYT8); conditions: read-out: % residual kinase activity
Procedure, shortened: as §1

MSK1 = MSK1 (Homo sapiens, UniProt O75582); conditions: read-out: % residual kinase activity
Procedure, shortened: as §1

RSK2 = RSK2 (Homo sapiens, UniProt P51812); conditions: read-out: % residual kinase activity
Procedure, shortened: as §1

JNK2 = JNK2 (Homo sapiens, UniProt P45984); conditions: read-out: % residual kinase activity
Procedure, shortened: as §1

CK1δ = CK1δ (Homo sapiens, UniProt P48730); conditions: read-out: % residual kinase activity
Procedure, shortened: as §1

ROCK2 = ROCK2 (Rattus norvegicus, UniProt Q62868); conditions: read-out: % residual kinase activity
Procedure, shortened: as §1

PKCz = PKCz (Homo sapiens, UniProt Q05513); conditions: read-out: % residual kinase activity
Procedure, shortened: as §1

BRSK2 = BRSK2 (Homo sapiens, UniProt Q8IWQ3); conditions: read-out: % residual kinase activity
Procedure, shortened: as §1

NUAK1 = NUAK1 (Homo sapiens, UniProt O60285); conditions: read-out: % residual kinase activity
Procedure, shortened: as §1

MAPKAP-K2, sequence (P49137 whole entry, species assumed): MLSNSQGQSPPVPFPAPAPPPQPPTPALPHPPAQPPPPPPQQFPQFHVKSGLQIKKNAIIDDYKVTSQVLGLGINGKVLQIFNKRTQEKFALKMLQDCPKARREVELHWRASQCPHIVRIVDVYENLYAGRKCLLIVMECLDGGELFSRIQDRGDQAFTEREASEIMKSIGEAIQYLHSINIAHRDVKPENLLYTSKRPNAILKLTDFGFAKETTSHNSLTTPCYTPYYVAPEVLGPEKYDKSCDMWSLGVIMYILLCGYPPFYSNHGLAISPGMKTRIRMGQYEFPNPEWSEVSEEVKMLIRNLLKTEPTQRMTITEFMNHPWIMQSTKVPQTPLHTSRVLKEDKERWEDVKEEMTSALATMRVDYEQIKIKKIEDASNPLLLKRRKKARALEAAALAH
NUAK1, sequence (O60285 whole entry, species assumed): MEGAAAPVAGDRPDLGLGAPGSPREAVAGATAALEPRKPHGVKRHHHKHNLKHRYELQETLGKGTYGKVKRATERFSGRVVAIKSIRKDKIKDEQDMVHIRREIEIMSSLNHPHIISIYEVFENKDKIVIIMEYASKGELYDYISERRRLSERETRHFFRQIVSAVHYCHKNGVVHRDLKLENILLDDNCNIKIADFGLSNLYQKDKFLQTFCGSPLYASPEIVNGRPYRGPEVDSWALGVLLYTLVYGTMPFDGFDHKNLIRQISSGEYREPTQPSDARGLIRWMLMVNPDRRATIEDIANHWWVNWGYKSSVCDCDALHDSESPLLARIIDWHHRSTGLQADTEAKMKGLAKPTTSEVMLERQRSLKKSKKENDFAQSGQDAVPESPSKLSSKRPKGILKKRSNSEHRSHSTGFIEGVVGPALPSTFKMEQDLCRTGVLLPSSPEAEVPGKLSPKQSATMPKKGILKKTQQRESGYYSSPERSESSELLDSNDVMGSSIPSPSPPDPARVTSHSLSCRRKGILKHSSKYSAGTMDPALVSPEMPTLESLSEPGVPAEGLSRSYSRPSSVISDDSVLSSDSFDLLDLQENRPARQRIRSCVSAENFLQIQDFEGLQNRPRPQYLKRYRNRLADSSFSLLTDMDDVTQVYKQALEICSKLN
MEKK1, sequence (Q13233 whole entry, species assumed): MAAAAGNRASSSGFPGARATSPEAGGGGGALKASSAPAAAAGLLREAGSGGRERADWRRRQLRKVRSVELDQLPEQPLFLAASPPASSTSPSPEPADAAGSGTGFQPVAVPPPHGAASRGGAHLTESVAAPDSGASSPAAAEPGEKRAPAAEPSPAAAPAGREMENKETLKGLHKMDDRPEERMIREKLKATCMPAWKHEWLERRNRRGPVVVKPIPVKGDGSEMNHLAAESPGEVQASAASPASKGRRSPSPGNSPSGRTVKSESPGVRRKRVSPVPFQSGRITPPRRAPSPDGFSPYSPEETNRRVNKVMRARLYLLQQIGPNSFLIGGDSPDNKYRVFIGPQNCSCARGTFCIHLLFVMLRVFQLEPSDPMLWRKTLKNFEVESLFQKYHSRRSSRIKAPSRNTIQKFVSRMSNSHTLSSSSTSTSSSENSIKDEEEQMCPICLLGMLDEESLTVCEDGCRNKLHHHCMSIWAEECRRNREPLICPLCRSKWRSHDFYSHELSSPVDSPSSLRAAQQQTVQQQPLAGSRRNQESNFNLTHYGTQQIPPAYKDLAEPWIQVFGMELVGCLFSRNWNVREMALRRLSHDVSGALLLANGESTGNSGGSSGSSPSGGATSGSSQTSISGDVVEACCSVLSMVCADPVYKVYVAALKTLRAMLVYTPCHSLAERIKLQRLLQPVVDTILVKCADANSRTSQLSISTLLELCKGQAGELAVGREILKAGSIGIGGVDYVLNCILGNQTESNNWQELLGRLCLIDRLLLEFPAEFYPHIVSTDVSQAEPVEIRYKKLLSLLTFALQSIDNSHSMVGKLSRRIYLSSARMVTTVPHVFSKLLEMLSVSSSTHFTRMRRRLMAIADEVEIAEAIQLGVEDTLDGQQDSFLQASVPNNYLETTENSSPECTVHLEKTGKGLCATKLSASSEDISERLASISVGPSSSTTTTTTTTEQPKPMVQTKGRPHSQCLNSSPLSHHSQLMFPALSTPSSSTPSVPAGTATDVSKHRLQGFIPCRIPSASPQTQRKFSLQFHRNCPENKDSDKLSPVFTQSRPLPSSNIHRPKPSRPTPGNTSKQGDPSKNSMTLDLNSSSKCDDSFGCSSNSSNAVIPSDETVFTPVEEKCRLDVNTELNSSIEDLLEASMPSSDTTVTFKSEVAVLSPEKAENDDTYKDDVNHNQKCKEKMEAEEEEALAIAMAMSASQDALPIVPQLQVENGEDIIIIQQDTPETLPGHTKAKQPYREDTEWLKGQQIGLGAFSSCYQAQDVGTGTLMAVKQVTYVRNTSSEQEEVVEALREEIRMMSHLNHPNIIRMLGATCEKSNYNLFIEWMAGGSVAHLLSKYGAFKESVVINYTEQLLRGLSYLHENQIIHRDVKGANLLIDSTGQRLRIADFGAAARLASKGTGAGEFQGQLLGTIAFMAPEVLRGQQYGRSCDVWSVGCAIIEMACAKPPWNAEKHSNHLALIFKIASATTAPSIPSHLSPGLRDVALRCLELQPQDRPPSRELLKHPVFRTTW
PDGFRA, sequence (P16234 24-1089, species assumed): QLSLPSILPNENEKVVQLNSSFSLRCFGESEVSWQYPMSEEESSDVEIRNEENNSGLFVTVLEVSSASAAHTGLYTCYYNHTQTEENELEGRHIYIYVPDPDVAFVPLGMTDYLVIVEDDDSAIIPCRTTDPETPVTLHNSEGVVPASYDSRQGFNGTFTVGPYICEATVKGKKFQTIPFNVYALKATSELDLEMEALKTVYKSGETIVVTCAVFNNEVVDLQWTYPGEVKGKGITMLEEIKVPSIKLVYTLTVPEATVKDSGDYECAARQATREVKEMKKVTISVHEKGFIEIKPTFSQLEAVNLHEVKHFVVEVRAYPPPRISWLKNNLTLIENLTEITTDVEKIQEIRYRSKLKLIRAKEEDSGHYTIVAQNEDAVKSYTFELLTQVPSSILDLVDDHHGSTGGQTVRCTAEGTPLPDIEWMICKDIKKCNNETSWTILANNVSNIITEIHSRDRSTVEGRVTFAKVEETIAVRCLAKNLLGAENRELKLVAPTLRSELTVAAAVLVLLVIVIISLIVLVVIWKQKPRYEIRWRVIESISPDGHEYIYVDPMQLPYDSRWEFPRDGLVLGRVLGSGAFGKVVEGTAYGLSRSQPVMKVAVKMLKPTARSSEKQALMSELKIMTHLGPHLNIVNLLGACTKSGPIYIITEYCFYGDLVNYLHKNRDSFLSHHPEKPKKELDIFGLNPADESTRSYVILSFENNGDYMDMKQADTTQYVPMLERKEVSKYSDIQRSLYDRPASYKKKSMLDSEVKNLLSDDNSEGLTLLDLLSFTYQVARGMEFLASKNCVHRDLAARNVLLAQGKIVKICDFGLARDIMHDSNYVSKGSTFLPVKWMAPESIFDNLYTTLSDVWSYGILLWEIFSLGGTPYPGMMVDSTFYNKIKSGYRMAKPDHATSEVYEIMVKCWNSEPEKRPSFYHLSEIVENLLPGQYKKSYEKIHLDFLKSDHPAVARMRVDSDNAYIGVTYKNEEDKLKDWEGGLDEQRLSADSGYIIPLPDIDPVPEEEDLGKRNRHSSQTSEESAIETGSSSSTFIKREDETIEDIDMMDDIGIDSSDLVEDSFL
ERK1, sequence (P27361 whole entry, species assumed): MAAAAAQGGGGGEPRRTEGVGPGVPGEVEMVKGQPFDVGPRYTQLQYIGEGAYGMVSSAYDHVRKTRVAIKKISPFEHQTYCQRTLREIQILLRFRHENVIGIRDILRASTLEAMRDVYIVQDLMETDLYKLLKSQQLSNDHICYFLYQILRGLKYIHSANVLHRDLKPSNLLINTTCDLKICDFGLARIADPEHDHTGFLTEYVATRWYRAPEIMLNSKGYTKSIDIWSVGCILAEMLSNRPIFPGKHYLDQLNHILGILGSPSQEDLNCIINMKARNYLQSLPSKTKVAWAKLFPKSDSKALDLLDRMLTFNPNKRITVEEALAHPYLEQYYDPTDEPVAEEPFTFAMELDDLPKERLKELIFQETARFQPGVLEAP
S6K1, sequence (P23443 whole entry, species assumed): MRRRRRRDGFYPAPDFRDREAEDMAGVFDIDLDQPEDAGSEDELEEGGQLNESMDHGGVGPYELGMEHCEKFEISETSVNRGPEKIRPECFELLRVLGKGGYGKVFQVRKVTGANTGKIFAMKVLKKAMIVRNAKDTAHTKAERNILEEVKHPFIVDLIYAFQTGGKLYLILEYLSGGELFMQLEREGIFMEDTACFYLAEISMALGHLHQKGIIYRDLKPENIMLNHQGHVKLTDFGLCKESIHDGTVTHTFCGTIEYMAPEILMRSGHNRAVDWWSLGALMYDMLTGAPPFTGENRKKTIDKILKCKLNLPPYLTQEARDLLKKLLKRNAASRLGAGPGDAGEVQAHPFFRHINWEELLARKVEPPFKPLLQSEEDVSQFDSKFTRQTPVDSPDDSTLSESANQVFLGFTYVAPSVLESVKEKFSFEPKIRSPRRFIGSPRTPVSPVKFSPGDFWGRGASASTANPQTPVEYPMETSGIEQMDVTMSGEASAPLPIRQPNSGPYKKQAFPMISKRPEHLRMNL
JNK2, sequence (P45984 whole entry, species assumed): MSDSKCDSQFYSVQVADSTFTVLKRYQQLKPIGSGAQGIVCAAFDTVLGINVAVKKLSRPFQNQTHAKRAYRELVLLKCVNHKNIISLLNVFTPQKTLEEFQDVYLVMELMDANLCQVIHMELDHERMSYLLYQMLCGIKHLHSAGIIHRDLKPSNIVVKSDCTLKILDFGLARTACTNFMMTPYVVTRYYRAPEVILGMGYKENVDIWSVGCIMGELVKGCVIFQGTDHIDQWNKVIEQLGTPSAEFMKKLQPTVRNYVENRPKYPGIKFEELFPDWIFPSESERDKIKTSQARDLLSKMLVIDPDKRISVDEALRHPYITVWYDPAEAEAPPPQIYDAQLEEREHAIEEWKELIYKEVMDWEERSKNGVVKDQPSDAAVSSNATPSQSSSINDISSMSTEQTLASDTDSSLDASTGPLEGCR

Compound `Cc1cc(C(C#N)c2ccc(Cl)cc2)c(Cl)cc1NC(=O)c1cc(Cl)ccc1O` (stereo not drawn) [ZT-1a, 5-chloro-N-(5-chloro-4-((4-chlorophenyl)(cyano)methyl)-2-methylphenyl)-2-hydroxy-benzamide] has a remaining activity at 1 µM (LKB1; 1 μM) of 107 ± 8%, a remaining activity at 10 µM (LKB1; 10 μM) of 115 ± 11% and a remaining activity at 1 µM (TAK1; 1 μM) of 117 ± 22%. For the same compound, the remaining activity at 10 µM (TAK1; 10 μM) was 103 ± 5%, the remaining activity at 1 µM (MNK2; 1 μM) was 100 ± 7% and the remaining activity at 10 µM (MNK2; 10 μM) was 105 ± 3%. It also gave a remaining activity at 1 µM (EPH-A4; 1 μM) of 59 ± 33%, a remaining activity at 10 µM (EPH-A4; 10 μM) of 90 ± 11% and a remaining activity at 1 µM (MEKK1; 1 μM) of 109 ± 1%. It also gave a remaining activity at 10 µM (MEKK1; 10 μM) of 93 ± 16%, a remaining activity at 1 µM (PAK5; 1 μM) of 93 ± 26% and a remaining activity at 10 µM (PAK5; 10 μM) of 93 ± 4%. For the same compound, the remaining activity at 1 µM (PKCa; 1 μM) was 97 ± 4%, the remaining activity at 10 µM (PKCa; 10 μM) was 83 ± 2% and the remaining activity at 1 µM (ERK1; 1 μM) was 107 ± 16%. The remaining activity at 10 µM (ERK1; 10 μM) was 109 ± 18%, the remaining activity at 1 µM (VEG-FR; 1 μM) was 113 ± 10% and the remaining activity at 10 µM (VEG-FR; 10 μM) was 88 ± 28%. For the same compound, the remaining activity at 1 µM (HER4; 1 μM) was 85 ± 8%, the remaining activity at 10 µM (HER4; 10 μM) was 84 ± 1% and the remaining activity at 1 µM (PIM3; 1 μM) was 115 ± 12%. It also gave a remaining activity at 10 µM (PIM3; 10 μM) of 99 ± 2%, a remaining activity at 1 µM (ZAP70; 1 μM) of 120 ± 1% and a remaining activity at 10 µM (ZAP70; 10 μM) of 97 ± 9%. For the same compound, the remaining activity at 1 µM (MKK6; 1 μM) was 102 ± 12%, the remaining activity at 10 µM (MKK6; 10 μM) was 82 ± 16% and the remaining activity at 1 µM (TAO1; 1 μM) was 66 ± 2%. It also gave a remaining activity at 10 µM (TAO1; 10 μM) of 104 ± 2%, a remaining activity at 1 µM (FGF-R1; 1 μM) of 93 ± 6% and a remaining activity at 10 µM (FGF-R1; 10 μM) of 101 ± 15%. The inhibition at 10 µM (MAPKAP-K2; 10 μM, read-out: inhibition of MAPKAP-K2 activity compared to DMSO control) was 85 ± 7%, the remaining activity at 1 µM (MAPKAP-K2; MAPKAP-K2, 1 μM, read-out: % residual kinase activity) was 91 ± 13% and the remaining activity at 10 µM (MAPKAP-K2; MAPKAP-K2, 10 μM, read-out: % residual kinase activity) was 13 ± 7%. The remaining activity at 1 µM (PDGFRA; 1 μM) was 84 ± 11%, the remaining activity at 10 µM (PDGFRA; 10 μM) was 80 ± 7% and the remaining activity at 1 µM (ERK2; 1 μM) was 111 ± 25%. The remaining activity at 10 µM (ERK2; 10 μM) was 75 ± 3%, the remaining activity at 1 µM (PKCγ; 1 μM) was 133 ± 11% and the remaining activity at 10 µM (PKCγ; 10 μM) was 120 ± 8%. The remaining activity at 1 µM (S6K1; 1 μM) was 119 ± 10%, the remaining activity at 10 µM (S6K1; 10 μM) was 81 ± 2% and the remaining activity at 1 µM (OSR1; 1 μM) was 106 ± 9%. It also gave a remaining activity at 10 µM (OSR1; 10 μM) of 98 ± 3%, a remaining activity at 1 µM (MAPKAP-K3; 1 μM) of 96 ± 26% and a remaining activity at 10 µM (MAPKAP-K3; 10 μM) of 72 ± 8%. The remaining activity at 1 µM (ULK2; 1 μM) was 110 ± 11%, the remaining activity at 10 µM (ULK2; 10 μM) was 49 ± 9% and the remaining activity at 1 µM (MSK1; 1 μM) was 114 ± 6%. For the same compound, the remaining activity at 10 µM (MSK1; 10 μM) was 112 ± 14%, the remaining activity at 1 µM (RSK2; 1 μM) was 116 ± 5% and the remaining activity at 10 µM (RSK2; 10 μM) was 101 ± 3%. It also gave a remaining activity at 1 µM (JNK2; 1 μM) of 102 ± 2%, a remaining activity at 10 µM (JNK2; 10 μM) of 147 ± 51% and a remaining activity at 1 µM (CK1δ; 1 μM) of 116 ± 5%. It also gave a remaining activity at 10 µM (CK1δ; 10 μM) of 114 ± 9%, a remaining activity at 1 µM (ROCK2; 1 μM) of 109 ± 6% and a remaining activity at 10 µM (ROCK2; 10 μM) of 101 ± 10%. For the same compound, the remaining activity at 1 µM (PKCz; 1 μM) was 80 ± 11%, the remaining activity at 10 µM (PKCz; 10 μM) was 122 ± 28% and the remaining activity at 1 µM (BRSK2; 1 μM) was 115 ± 14%. The remaining activity at 10 µM (BRSK2; 10 μM) was 104%, the remaining activity at 1 µM (NUAK1; 1 μM) was 52 ± 7% and the remaining activity at 10 µM (NUAK1; 10 μM) was 61 ± 16%.
